From patent US4443246A, “Herbicidal pyridyl-ethoxy-phenyl urea derivatives” (Takeda Chemical Industries, Ltd., priority 1981, dated 1984)

Legend:
Corn = assay: Phytotoxicity to crop (corn), foliar pot test; assay type: in vivo, Zea mays L.; conditions: 14 days after foliar spray
Protocol: 900 cm^2 -Plastic pots are packed with crop-filed soil and sown with seeds of Red root pigweed (Amaranthus retroflexus L.), Purple lambsquarter (Chenopodium album (L.) var. centrorubrum Makino), Oriental smartweed, (Polygonum Blumei Meisn.), Common purslane (Portulaca oleracea L.), Tall morningglory (Ipomoea purpurea (L.) Roth), Cocklebur (Xanthium strumarium L.), Velvetleaf (Abutilon theophrasti Medic.), Jimson weed (Datura stramonium L.) and Corn (Zea mays L.)
These test plants are grown in a greenhouse for 9-14 days. When the true leaves sprouted, these pots are placed in a chamber of 1000 cm^2, where 10 ml each of solutions each containing a given weight of the test compound is applied to each plant from the above with a small spraygun so that each drug solution is applied to leaves and stalks of the respective plants homogeneously. These pots are then left standing in the greenhouse for 14 days. Then, the above-ground portions of each of the thus treated plants, which have remained non-withering, are collected by cutting, followed by weighing while they are fresh.
The non-withering ratio is calculated on the basis of the corresponding weight of the control (non-treated) plants as 100%. The phytotoxicity and herbicidal effect of the test compound are evaluated on the basis of the following criteria. The test solution is prepared by dissolving the test compound of a given weight in 1 ml of acetone containing 1% of a surface-active agent, Tween 20® (Kao Atlas Co., Japan), which is diluted with deionized water to make the total volume to be 10 ml.
To dissolve or disperse the test compound completely in the acetone, stirring by means of super-sonic wave is employed.
Phytotoxicity to crop (corn) is indicated with the following indexes:
(The indexes 0 and 1 to crop denote the test compound can be practically applicable to crop.)

weeds = conditions: prior art, in words; cited from earlier work
[1] = Toxicity to mammals (LD50, orally in mice); conditions: mouse, in vivo, po
Toxicity to fishes (TLm) = conditions: in vivo

Row | Structure (SMILES) | Phytotoxicity Corn (Corn; Application rate 10) | Phytotoxicity Corn (Corn; Application rate 20) | herbicidal activity (weeds) | LD50 [1] [mg/kg] | LC50 (Toxicity to fishes (TLm)) [µg/mL]
1 | CCc1ccc(CCOc2ccc(NC(=O)N(C)C)cc2)nc1 [Compound No. 2, N,N-dimethyl-N'-[4-[2-(5-ethyl-2-pyridyl)ethoxy]phenyl]urea] | 1 (Negligible 0.1 to 12.5) | 1 (Negligible 0.1 to 12.5) | – | – | –
2 | CN(C)C(=O)Nc1ccc(Oc2ccc(Cl)cc2)cc1 [chloroxuron, N'-[4-(4-chlorophenoxy)phenyl]-N,N-dimethylurea] | – | – | have herbicidal activity | – | –
3 | CON(C)C(=O)Nc1ccc(OCCc2cccc(C)n2)cc1 [Compound No. 3, N-methoxy-N-methyl-N'-[4-[2-(6-methyl-2-pyridyl)ethoxy]phenyl]urea] | 1 (Negligible 0.1 to 12.5) | 1 (Negligible 0.1 to 12.5) | – | – | –
4 | Cc1cccc(CCOc2ccc(NC(=O)N(C)C)cc2)n1 [Compound No. 1, N,N-dimethyl-N'-[4-[2-(6-methyl-2-pyridyl)ethoxy]phenyl]urea] | 0 (None 0) | 0 (None 0) | – | ≥ 300 | ≥ 10
